In the CheMixHub viscosity set:

Test: xn = mol fraction of the nth substance listed

CCCCOCCO + OCCOCCO
101 kPa
Conditions	viscosity [mPa·s]
293.15 K, x1 = 0.0527	34.87
293.15 K, x1 = 0.1006	31.53
293.15 K, x1 = 0.1978	25.56
293.15 K, x1 = 0.2838	21.2
293.15 K, x1 = 0.3994	16.51
293.15 K, x1 = 0.4508	14.78
293.15 K, x1 = 0.5016	13.23
293.15 K, x1 = 0.5487	11.92
293.15 K, x1 = 0.5792	11.12
293.15 K, x1 = 0.6735	8.899
293.15 K, x1 = 0.7975	6.435
293.15 K, x1 = 0.8946	4.816
293.15 K, x1 = 0.9556	3.894
298.15 K, x1 = 0.0486	27.11
298.15 K, x1 = 0.0983	24.47
298.15 K, x1 = 0.2015	19.76
298.15 K, x1 = 0.2993	16.07
298.15 K, x1 = 0.3999	12.89
298.15 K, x1 = 0.4504	11.5
298.15 K, x1 = 0.4981	10.3
298.15 K, x1 = 0.5447	9.244
298.15 K, x1 = 0.5844	8.422
298.15 K, x1 = 0.6781	6.756
298.15 K, x1 = 0.7974	5.096
298.15 K, x1 = 0.8989	3.946
298.15 K, x1 = 0.9494	3.392
303.15 K, x1 = 0.0465	19.89
303.15 K, x1 = 0.0998	17.79
303.15 K, x1 = 0.2008	14.36
303.15 K, x1 = 0.2979	11.66
303.15 K, x1 = 0.4002	9.382
303.15 K, x1 = 0.4487	8.472
303.15 K, x1 = 0.491	7.751
303.15 K, x1 = 0.5513	6.832
303.15 K, x1 = 0.6	6.167
303.15 K, x1 = 0.7032	4.949
303.15 K, x1 = 0.8025	3.971
303.15 K, x1 = 0.8829	3.29
303.15 K, x1 = 0.9536	2.765

CCCCOCCO + OCCOCCOCCO
101 kPa
Conditions	viscosity [mPa·s]
293.15 K, x1 = 0.048	36.14
293.15 K, x1 = 0.111	30.89
293.15 K, x1 = 0.1958	25.06
293.15 K, x1 = 0.3023	19.11
293.15 K, x1 = 0.4053	14.62
293.15 K, x1 = 0.4492	12.94
293.15 K, x1 = 0.4988	11.29
293.15 K, x1 = 0.5502	9.833
293.15 K, x1 = 0.5922	8.791
293.15 K, x1 = 0.6915	6.755
293.15 K, x1 = 0.7959	5.249
293.15 K, x1 = 0.8902	4.37
293.15 K, x1 = 0.9457	3.879
298.15 K, x1 = 0.0536	30.5
298.15 K, x1 = 0.1049	27.17
298.15 K, x1 = 0.2064	21.51
298.15 K, x1 = 0.2953	17.55
298.15 K, x1 = 0.3982	13.71
298.15 K, x1 = 0.4518	12.06
298.15 K, x1 = 0.5018	10.7
298.15 K, x1 = 0.5494	9.463
298.15 K, x1 = 0.5998	8.336
298.15 K, x1 = 0.6966	6.451
298.15 K, x1 = 0.7997	4.971
298.15 K, x1 = 0.8916	3.873
298.15 K, x1 = 0.9411	3.369
303.15 K, x1 = 0.0501	26.39
303.15 K, x1 = 0.1015	23.75
303.15 K, x1 = 0.197	19.42
303.15 K, x1 = 0.3006	15.59
303.15 K, x1 = 0.4006	12.58
303.15 K, x1 = 0.4531	11.14
303.15 K, x1 = 0.4972	10.12
303.15 K, x1 = 0.5469	8.986
303.15 K, x1 = 0.6012	7.888
303.15 K, x1 = 0.6893	6.343
303.15 K, x1 = 0.803	4.661
303.15 K, x1 = 0.89	3.59
303.15 K, x1 = 0.9416	3.02

CCOC(=O)CCl + OCc1ccccc1
viscosity [mPa·s], 101.3 kPa
Conditions	x1 = 0.1072	x1 = 0.2035	x1 = 0.2998	x1 = 0.395	x1 = 0.5	x1 = 0.5984	x1 = 0.6981	x1 = 0.7972	x1 = 0.8941
298.15 K	4.078	3.295	2.729	2.285	1.923	1.669	1.459	1.326	1.188
303.15 K	3.567	2.887	2.428	2.036	1.747	1.516	1.334	1.209	1.092
308.15 K	3.058	2.48	2.127	1.815	1.572	1.365	1.209	1.093	0.997

[Cl-].[Cl-].[Cl-].[Cl-].[Ti+4] + [Cl-].[Cl-].[Cl-].[Cl-].[Sn+4]
viscosity [mPa·s], 101 kPa
Conditions	x2 = 0.2	x2 = 0.4	x2 = 0.6	x2 = 0.8
293.15 K	0.847	0.87	0.895	0.922
313.15 K	0.702	0.703	0.705	0.709

CC(C)CC(C)C + c1ccccc1
101 kPa, x1 = 0.5
Conditions	viscosity [mPa·s]
298 K	0.3825
318 K	0.314

CCCCOCCO + c1ccccc1
viscosity [mPa·s], 101 kPa
Conditions	298.15 K	308.15 K
x1 = 0.0553	0.648	0.562
x1 = 0.1496	0.736	0.631
x1 = 0.2488	0.845	0.717
x1 = 0.3504	0.978	0.821
x1 = 0.4555	1.144	0.949
x1 = 0.4995	1.223	1.011
x1 = 0.5504	1.323	1.088
x1 = 0.6482	1.543	1.258
x1 = 0.7535	1.83	1.479
x1 = 0.8483	2.143	1.718
x1 = 0.9556	2.575	2.048

CCOC(=O)CCl + c1ccccc1
viscosity [mPa·s], 101.3 kPa
Conditions	x1 = 0.0985	x1 = 0.1983	x1 = 0.2974	x1 = 0.3925	x1 = 0.5049	x1 = 0.6023	x1 = 0.696	x1 = 0.7994	x1 = 0.8998
298.15 K	0.634	0.659	0.694	0.734	0.781	0.834	0.886	0.949	1.019
303.15 K	0.592	0.616	0.649	0.687	0.731	0.779	0.825	0.883	0.948
308.15 K	0.549	0.574	0.605	0.64	0.681	0.723	0.765	0.82	0.878

COC(=O)c1ccccc1 + c1ccccc1
viscosity [mPa·s], 101 kPa
Conditions	x1 = 0.0773	x1 = 0.1534	x1 = 0.2362	x1 = 0.3252	x1 = 0.4217	x1 = 0.5176	x1 = 0.6241	x1 = 0.7379	x1 = 0.8662
303.15 K	0.613	0.675	0.75	0.835	0.929	1.043	1.165	1.305	1.482
313.15 K	0.543	0.588	0.645	0.71	0.784	0.874	0.985	1.107	1.245

O=C(OCc1ccccc1)c1ccccc1 + c1ccccc1
viscosity [mPa·s], 101 kPa
Conditions	x1 = 0.11	x1 = 0.1886	x1 = 0.27	x1 = 0.4124	x1 = 0.52	x1 = 0.5911	x1 = 0.7827	x1 = 0.8954
298.15 K	0.9057	1.196	1.514	2.301	3.073	3.584	5.478	6.883
313.15 K	0.7205	–	1.161	–	2.18	–	–	–

c1ccc2c(c1)CCCC2 + c1ccccc1
298.15 K, 101 kPa
Conditions	viscosity [mPa·s]
x1 = 0.1394	0.719
x1 = 0.3016	0.8758
x1 = 0.493	1.098
x1 = 0.7222	1.445
